# Patent US20250382306A1, “HETEROCYCLIC COMPOUND AS TAAR1 LIGAND AGONIST” (SHANDONG LUYE PHARMACEUTICAL CO., LTD., priority 2022, published 2025)
# Where two headings read alike, the source gives them in different places.
# Columns and labels:
# [1] = biological target: T1, TAAR1 (Homo sapiens, UniProt Q96RJ0); test: In vitro TAAR1 functional activity (cAMP Hunter CHO-K1 TAAR1 Gs cell line, HitHunter cAMP assay); type: cell-based; details: chemiluminescence cAMP readout
# T1 construct: expressed in transfected cells; host or cells: CHO-K1 (cAMP Hunter TAAR1 Gs cell line)
# T1 sequence (Q96RJ0 1-339): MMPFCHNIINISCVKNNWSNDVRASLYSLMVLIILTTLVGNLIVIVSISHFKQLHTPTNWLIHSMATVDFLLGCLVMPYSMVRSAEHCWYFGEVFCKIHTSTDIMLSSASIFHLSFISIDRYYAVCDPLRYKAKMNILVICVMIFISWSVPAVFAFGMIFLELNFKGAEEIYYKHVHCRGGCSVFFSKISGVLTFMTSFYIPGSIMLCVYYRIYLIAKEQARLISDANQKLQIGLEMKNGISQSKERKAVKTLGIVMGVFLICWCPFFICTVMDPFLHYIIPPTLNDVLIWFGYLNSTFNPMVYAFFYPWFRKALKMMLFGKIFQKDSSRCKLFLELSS
# Description: Test Example 1. In Vitro Evaluation of Intrasynaptic and Extrasynaptic Functional Activities in Cells
# Cell: CAMP Hunter™ CHO-K1 TAAR1 Gs Cell Line
# Assay Reagent: HitHunter cAMP Assay Detection Kit
# Experimental Instrument: PerkinElmer Envision™ Chemiluminescence Signal Detector
# Experimental method: cell treatment: The cAMP Hunter cell strain was cultured at 37° C. with 5% CO2 to 70-80% confluence. The cells were harvested, and the cell density was adjusted to 1.5×10^4 cells/mL. The cells were seeded in a white-wall 384-well microwell plate at a volume of 20 μL, and incubated at 37° C. with 5% CO2 overnight. The cell medium was discarded, and 15 μL of 2:1 HBSS/10 mM Hepes:cAMP XS+Ab reagent was added to each well. The mother solution of the sample was diluted with an assay buffer in a concentration gradient to a 4× sample, and 5 μL of the 4× sample was added to each well. The plate was incubated at 37° C. or room temperature for 30 or 60 min. […] 20 μL of cAMP XS+EA reagent was added to each well, and the plate was incubated at room temperature for 3 h. The chemiluminescence signal was read using a PerkinElmer Envision™ detector.
# Data analysis: EC50 was calculated using CBIS data analysis software (ChemInnovation, CA). The activity percentage was calculated using the following formula: % activity=100%×(test sample average RLU−solvent control average RLU)/(maximum control average RLU−solvent control average RLU).
# [2] = Pharmacokinetic study in rats; type: in vivo, SD rats; details: for Cmax: read-out: Cmax or C0
# Description: Test Example 2. Pharmacokinetic Study in Rats
# Rat: SD Rats Weighing 200-250 g
# (§1) Reagent: acetonitrile, MERCK; methanol, MERCK; formic acid, Sigma; tolbutamide, Sigma.
# Instrument: water purification equipment, Millipore; electronic balance, METTLER TOLEDO; high-speed benchtop centrifuge, Thermno; water bath thermostatic oscillator, Shanghai Yiheng Technical Co., Ltd.; vortex oscillator, Thermno; liquid chromatography-mass spectrometry, AB SCIEX.
# Method: The SD rats were dosed intravenously (IV) and intragastrically (IG), 3 SD rats in each group. Compounds 1-b, 2-a and L27 were separately administered, and the vehicles were DMSO and Tween 80. […] Whole blood samples were separately collected at 0, 5 m (intravenous), 15 m, 30 mi, 1 h, 2 h, 4 h, 6 h, 8 h, 12 h, and 24 h. The whole blood was placed in a heparinized EP tube and centrifuged at 13,500 rpm for 10 min to separate the plasma. After pretreatment, the plasma was analyzed by LC-MS/MS to determine the concentration of the test compound in the plasma.
# [3] = tested on: MK801-induced overactivity; test: Pharmacodynamic study in mice, MK-801 overactivity model (Test Example 5); type: in vivo, C57 mice; details: 3 mg/kg intragastric; for total movement distance after modeling: MK-801 0.8 mg/kg i.p., 30-60 min after administration, p<0.05 vs model group 101535.71±26076.11 mm
# Description: (§2) 4.1. model preparation: MK-801 induces overactivity in mice and is commonly used for preclinical evaluation of antipsychotics. The modeling method in this test was: The mice were injected with MK-801 intraperitoneally in at single dose of 0.8 mg/kg.
# (§3) The mice were randomly divided into groups. At the start of the test, the test samples were administered intragastrically at an single dose according to the doses shown in Table 5, and the mice were placed in an activity chamber. After 30 min, each mouse was injected intraperitoneally with 0.8 mg/kg of MK-801 for modeling, and placed in the activity chamber again. The movement distance (mm) of the mice after modeling (i.e., within 30-60 min after administration) was recorded and analyzed using a TopScan monitoring system.
# (§4) […] The total movement distance of the mice after modeling (30-60 min after administration) was recorded.
# (§5) Data analysis and processing were carried out using Graphpad 5.0 software. ANOVA test was used to compare the total movement distance between each administration group and model group within 30-60 min.
# Test Example 5. Pharmacodynamic Study in Mice
# 5.1. Experimental grouping: The mice were randomly divided into model group, 1-b group, and 2-a group, 5 animals in each group, as shown in Table 6. The model preparation, test method, observation of indexes and statistical method were the same as those in Test Example 4.
# [4] = Pharmacokinetic study in dogs; details: dog, in vivo, po; Beagle dogs, plasma, after intragastric L15 hydrochloride 2 mg/kg (as free base); label = analyte
# Description: Test Example 3. Pharmacokinetic Study in Dogs
# Dog: Beagle dogs weighing 11-13 kg
# as §1
# Instrument: water purification equipment, Millipore; electronic balance, METTLER TOLEDO; high-speed benchtop centrifuge, Thermo; water bath thermostatic oscillator, Shanghai Yiheng Technical Co., Ltd.; vortex oscillator, Thermo; liquid chromatography-mass spectrometry, AB SCIEX.
# Method: L15 hydrochloride was administered intragastrically at a dose of 2 mg/kg (calculated based on free base), 2 Beagle dogs in each group. The vehicles were DMSO and Tween 80. Whole blood samples were separately collected at 0, 5 min, 15 min, 30 min, 1 h, 2 h, 3 h, 4 h, 6 h, 8 h, 12 h, and 24 h. The whole blood was placed in a heparinized EP tube and centrifuged at 13,500 rpm for 10 min to separate the plasma. After pretreatment, the plasma was analyzed by LC-MS/MS to determine the concentration of the test compound in the plasma.
# [5] = tested on: MK801-induced overactivity; test: Pharmacodynamic study in mice, MK-801 overactivity model (Test Example 4); type: in vivo; details: C57 mice; for total movement distance after modeling: MK-801 0.8 mg/kg i.p., 30-60 min after administration, p<0.05 vs model group 63052.14±21618.80 mm
# Description: Test Example 4. Pharmacodynamic Study in Mice
# Mouse: C57 mice weighing 20-22 g
# Instrument: electronic balance, METTLER TOLEDO; TopScan monitoring system.
# as §2
# 4.2. Experimental grouping: The mice were randomly divided into model group, 1-b group, and L27 group, 10 animals in each group, as shown in Table 5.
# as §3, §4, §5
# [6] = cAMP Hunter CHO-K1 TAAR1 Gs cell line, read-out: EC50
# [7] = EC50, cAMP Hunter CHO-K1 TAAR1 Gs cell line
# [8] = SD rats, 1-b IV 2 mg/kg, analyte 1-b
# [9] = Sprague-Dawley, rat, in vivo, po, SD rats, plasma, 1-b IG 5 mg/kg, analyte 1-b
# [10] = Sprague-Dawley, rat, in vivo, SD rats, plasma, 1-b IV 2 mg/kg, analyte 1-b
smiles,measurement,setting,value
NC[C@@H]1NCCc2ccsc21 [Compound 41-a],EC50,[1]; [6],9.1 µM
CN1CCN2CCc3ccsc3[C@H]2C1 [Compound 2-b],EC50,[1]; [6],> 10 µM
CN1CCN2CCc3ccsc3[C@@H]2C1 [Compound 2-a],EC50,[1]; [6],4.4 µM
same,Exposure and bioavailability (conclusion),"[2]; rat, in vivo",relatively high exposure and bioavailability
same,effect on MK801-induced overactivity (conclusion),[3],good inhibition effect
same,total movement distance after modeling,[3],9161.61±4711.10 mm
Fc1ccc(C2CNCCO2)s1 (centres unmarked) [Compound 9],EC50,[1]; [6],0.734 µM
"CNCC1OC(C)Cc2ccsc21 (single isomer, unassigned) [Compound 28-b]",EC50,[1]; [6],1.84 µM
c1cc(C2CC2)c(C2CNCCO2)s1 (centres unmarked) [Compound 59],EC50,[1]; [6],2.91 µM
Fc1csc(C2CNCCO2)c1 (centres unmarked) [Compound 8],EC50,[1]; [7],0.295 µM
"CNCC1OC(C)Cc2ccsc21 (single isomer, unassigned) [Compound 28-a]",EC50,[1]; [6],> 10 µM
CNCC1c2sccc2CCN1C (centres unmarked) [Compound 61],EC50,[1]; [6],> 10 µM
"NCC1SCCc2ccsc21 (single isomer, unassigned) [Compound 43-b]",EC50,[1]; [6],0.031 µM
"CN1CCc2ccsc2C1CN (single isomer, unassigned) [Compound 42-a]",EC50,[1]; [6],> 10 µM
"CNCC1OCC(c2ccccc2)c2ccsc21 (single isomer, unassigned) [Compound 32-c]",EC50,[1]; [6],> 10 µM
CC(C)Oc1ccsc1C1CNCCO1 (centres unmarked) [Compound 15],EC50,[1]; [7],> 10 µM
FC(F)(F)COc1ccsc1C1CNCCO1 (centres unmarked) [Compound 20],EC50,[1]; [6],4.72 µM
"CNCC1OCC(c2ccccc2)c2ccsc21 (single isomer, unassigned) [Compound 32-d]",EC50,[1]; [6],> 10 µM
CNC[C@H]1NCCc2ccsc21 [Compound 38-b],EC50,[1]; [6],7.96 µM
CNCC1OC(C)(C)Cc2ccsc21 (centres unmarked) [Compound 34],EC50,[1]; [6],1.25 µM
NC[C@H]1NCCc2ccsc21 [Compound 41-b],EC50,[1]; [6],0.424 µM
COc1ccc([C@@H]2CNCCO2)s1 [Compound 12-a],EC50,[1]; [7],> 10 µM
COc1csc([C@@H]2CNCCO2)c1 [Compound 11-a],EC50,[1]; [7],> 10 µM
CNC[C@H]1SCCc2ccsc21 [Compound 40-b],EC50,[1]; [6],0.522 µM
"CNCC1OCC(c2ccccc2)c2ccsc21 (single isomer, unassigned) [Compound 32-b]",EC50,[1]; [6],> 10 µM
"COc1ccsc1C1CNCCO1 (single isomer, unassigned) [Compound 10-a]",EC50,[1]; [6],0.028 µM
c1cc2c(s1)[C@@H]1CNCCN1CC2 [Compound 1-b],EC50,[1]; [6],0.062 µM
same,F,"[2]; SD rats, 1-b IG 5 mg/kg vs IV 2 mg/kg",66.6 ± 8.12%
same,Cl_obs,[2]; [8],28.8 ± 3.25 mL/min/kg
same,Vss_obs,[2]; [8],2.91 ± 0.68 L/kg
same,AUC(0-t),[2]; [9],9.95 ± 1.21 µM·h
same,MRT last,[2]; [9],2.33 ± 0.465 h
same,Tmax,[2]; [9],0.417 ± 0.144 h
same,half-life,[2]; [9],1.85 ± 0.217 h
same,Cmax,[2]; [9],3.73 ± 0.846 µM
same,AUC(0-t),[2]; [10],5.97 ± 0.642 µM·h
same,MRT last,[2]; [10],1.6 ± 0.203 h
same,half-life,[2]; [10],1.76 ± 0.344 h
same,Cmax,[2]; [10],7.54 ± 2.28 µM
same,AUC(0-t),[4],0.0547 µM·h
same,Cmax,[4],0.0223 µM
same,MRT last,[4],1.68 h
same,Tmax,[4],1.5 h
same,effect on MK801-induced overactivity (conclusion),[5]; 10 mg/kg intragastric,good inhibition effect
same,total movement distance after modeling,[5]; 1-b 10 mg/kg intragastric,6493.12±6228.87 mm
same,effect on MK801-induced overactivity (conclusion),[3],good inhibition effect
same,total movement distance after modeling,[3],13644.54±10814.85 mm
CC(OC(=O)C(C)C)OC(=O)N1CCN2CCc3ccsc3[C@@H]2C1 (some centres unmarked) [Compound L27],Detection of L27 in plasma,"[2]; SD rats, after intragastric L27 9 mg/kg",L27 was not detected
same,total movement distance after modeling,[5]; L27 hydrochloride 16 mg/kg intragastric,8100.56±7787.37 mm
FCCOc1ccsc1C1CNCCO1 (centres unmarked) [Compound 60],EC50,[1]; [7],9.8 µM
OC[C@@H]1OCCc2ccsc21 [Compound 39-b],EC50,[1]; [6],> 10 µM
OC[C@H]1OCCc2ccsc21 [Compound 39-a],EC50,[1]; [6],> 10 µM
CNCC1OCCc2ccoc21 (centres unmarked) [Compound 37],EC50,[1]; [6],1.23 µM
CNCC1OCC(C)(C)c2ccsc21 (centres unmarked) [Compound 35],EC50,[1]; [6],> 10 µM
CNC[C@@H]1SCCc2ccsc21 [Compound 40-a],EC50,[1]; [6],> 10 µM
"COc1ccsc1C1CNCCO1 (single isomer, unassigned) [Compound 10-b]",EC50,[1]; [6],0.386 µM
CNC[C@@H]1NCCc2ccsc21 [Compound 38-a],EC50,[1]; [6],> 10 µM
COc1csc([C@H]2CNCCO2)c1 [Compound 11-b],EC50,[1]; [7],2.16 µM
"CN1CCc2ccsc2C1CN (single isomer, unassigned) [Compound 42-b]",EC50,[1]; [6],0.244 µM
FC(F)COc1ccsc1C1CNCCO1 (centres unmarked) [Compound 19],EC50,[1]; [7],> 10 µM
CNCC1OC(COC)Cc2ccsc21 (centres unmarked) [Compound 30],EC50,[1]; [6],> 10 µM
"CNCC1OCC(c2ccccc2)c2ccsc21 (single isomer, unassigned) [Compound 32-a]",EC50,[1]; [6],> 10 µM
c1cc2c(s1)[C@H]1CNCCN1CC2 [Compound 1-a],EC50,[1]; [6],9.12 µM
COc1ccc([C@H]2CNCCO2)s1 [Compound 12-b],EC50,[1]; [7],1.59 µM
"NCC1SCCc2ccsc21 (single isomer, unassigned) [Compound 43-a]",EC50,[1]; [6],> 10 µM
